From US20180208605A1, “Substituted Aza Compounds as IRAK-4 Inhibitors” (AURIGENE DISCOVERY TECHNOLOGIES LIMITED, priority 2015, published 2018)
Counter-ions that a name gives are not always drawn.

Molecular target: T1, recombinant IRAK-4 kinase (Homo sapiens, UniProt Q9NWZ3)
T1 construct: purchased Millipore, USA
T1 sequence (Q9NWZ3 1-460): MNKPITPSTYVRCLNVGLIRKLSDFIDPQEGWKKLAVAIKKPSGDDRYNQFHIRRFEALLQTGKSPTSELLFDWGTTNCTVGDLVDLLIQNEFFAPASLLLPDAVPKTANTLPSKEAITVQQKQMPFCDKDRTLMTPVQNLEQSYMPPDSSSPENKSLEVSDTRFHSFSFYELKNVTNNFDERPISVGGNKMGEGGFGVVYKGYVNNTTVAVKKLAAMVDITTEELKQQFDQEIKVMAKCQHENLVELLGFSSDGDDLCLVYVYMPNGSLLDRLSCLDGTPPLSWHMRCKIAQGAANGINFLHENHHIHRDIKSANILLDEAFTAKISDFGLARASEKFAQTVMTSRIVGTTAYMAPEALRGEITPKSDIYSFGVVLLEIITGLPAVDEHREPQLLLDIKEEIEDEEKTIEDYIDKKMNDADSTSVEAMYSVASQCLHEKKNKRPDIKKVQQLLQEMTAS
Experiment: IRAK-4 Biochemical Assay (TR-FRET, percent inhibition)
Settings: TR-FRET, 20 μM ATP, 100 nM Biotin Histone H3; for inhibition at 0.1 µM: read-out: % inhibition of IRAK-4 @0.1 μM, compound at 0.1 μM; for inhibition at 1 µM: read-out: % inhibition of IRAK-4 @ 1 μM, compound at 1 μM
Procedure, shortened: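 IRAK-4 pre-incubated with compound 30 min at room temperature in Tris-HCl pH 7.5 buffer with MgCl2, MnCl2 and DTT, then reacted 30 min with 100 nM biotin-histone H3 and 20 μM ATP. EDTA stop with Eu-anti-phospho-H3 (Ser10) and APC-streptavidin. Percent inhibition derived from the 665/615 nm emission ratio at 340 nm excitation.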

Row | Compound | inhibition at 0.1 µM [%] | inhibition at 1 µM [%]
1 | Cc1ccc(-c2nc3nc(N4CCOCC4)oc3cc2NC(=O)c2coc(-c3ccnc(C)c3)n2)nc1 [Example 14, N-(5-(5-methylpyridin-2-yl)-2-morpholinooxazolo[4,5-b]pyridin-6-yl)-2-(2-methylpyridin-4-yl)oxazole-4-carboxamide] | 99 | 100
2 | Nc1ccc(-c2cccc(C(=O)Nc3cc4sc(N5CCOCC5)nc4nc3C3CC3)n2)cn1 [Example 51, 6′-amino-N-(5-cyclopropyl-2-morpholinothiazolo[4,5-b]pyridin-6-yl)-[2,3′-bipyridine]-6-carboxamide] | 98 | 
3 | Cn1cc(-c2nc(C(=O)Nc3cc4sc(N5CCOCC5)nc4nc3N3CCCCC3)co2)cc(F)c1=O [Example 13, 2-(5-fluoro-1-methyl-6-oxo-1,6-dihydropyridin-3-yl)-N-(2-morpholino-5-(piperidin-1-yl)thiazolo[4,5-b]pyridin-6-yl)oxazole-4-carboxamide] | 98 | 98
4 | NC1CCN(c2ccn3ncc(C(=O)Nc4cc5sc(N6CCOCC6)nc5nc4C4CC4)c3n2)CC1 [Example 99, 5-(4-aminopiperidin-1-yl)-N-(5-cyclopropyl-2-morpholinothiazolo[4,5-b]pyridin-6-yl)pyrazolo[1,5-a]pyrimidine-3-carboxamide 2,2,2-trifluoroacetate] | 89 | 96
5 | Cc1cc(-c2ncc(C(=O)Nc3cc4sc(N5CCOCC5)nc4nc3N3CCC(O)(CO)CC3)o2)ccn1 [Example 4, N-(5-(4-hydroxy-4-(hydroxymethyl)piperidin-1-yl)-2-morpholinothiazolo[4,5-b]pyridin-6-yl)-2-(2-methylpyridin-4-yl)oxazole-5-carboxamide hydrochloride] | 99 | 99
6 | O=C(Nc1cc2sc(N3CCOCC3)nc2nc1N1CCCCC1)c1cnn2cccnc12 [Example 104, N-(2-morpholino-5-(piperidin-1-yl)thiazolo[4,5-b]pyridin-6-yl)pyrazolo[1,5-a]pyrimidine-3-carboxamide hydrochloride] | 95 | 97
7 | CC(N)C(=O)O[C@H]1CCN(c2cccc(C(=O)Nc3cc4sc(N5CCOCC5)nc4nc3N3CCCCC3)n2)C1 (stereo partly drawn) [Example 57, (S)-1-(6-((2-morpholino-5-(piperidin-1-yl)thiazolo[4,5-b]pyridin-6-yl)carbamoyl)pyridin-2-yl)pyrrolidin-3-ylalaninate] | 97 | 98
8 | O=C(Nc1cc2sc(N3CCOCC3)nc2nc1N1CCCCC1)c1cc(N2CC[C@H](O)C2)ccn1 [Example 68, (S)-4-(3-hydroxypyrrolidin-1-yl)-N-(2-morpholino-5-(piperidin-1-yl)thiazolo[4,5-b]pyridin-6-yl)picolinamide] | 23 | 38
9 | O=C(Nc1cc2sc(N3CCOCC3)nc2nc1N1CCCCC1)c1cccc(N2CC[C@H](O)C2)n1 [Example 42, (S)-6-(3-hydroxypyrrolidin-1-yl)-N-(2-morpholino-5-(piperidin-1-yl)thiazolo[4,5-b]pyridin-6-yl)picolinamide hydrochloride] | 94 | 98
10 | O=C1CN(c2cccc(C(=O)Nc3cc4sc(N5CCOCC5)nc4nc3N3CCCCC3)n2)CCN1 [Example 61, N-(2-morpholino-5-(piperidin-1-yl)thiazolo[4,5-b]pyridin-6-yl)-6-(3-oxopiperazin-1-yl)picolinamide] | 84 | 91
11 | O=C(Nc1cc2sc(N3CCOCC3)nc2nc1N1CCCCC1)c1ccnc(N2CC[C@H](O)C2)n1 [Example 60, (S)-2-(3-hydroxypyrrolidin-1-yl)-N-(2-morpholino-5-(piperidin-1-yl)thiazolo[4,5-b]pyridin-6-yl)pyrimidine-4-carboxamide] | 88 | 94
12 | Cc1cc(-c2nc(C(=O)Nc3cc4oc(N5CCOCC5)nc4nc3N3CC[C@@H](OCC4CC4)C3)co2)ccn1 [Example 95, (R)-N-(5-(3-(cyclopropylmethoxy)pyrrolidin-1-yl)-2-morpholinooxazolo[4,5-b]pyridin-6-yl)-2-(2-methylpyridin-4-yl)oxazole-4-carboxamide] | 80 | 97
13 | O=C(Nc1cc2oc(N3CCOCC3)nc2nc1N1CC[C@@H](O)C1)c1cnn2cccnc12 [Example 25, (R)—N-(5-(3-hydroxypyrrolidin-1-yl)-2-morpholinooxazolo[4,5-b]pyridin-6-yl)pyrazolo[1,5-a]pyrimidine-3-carboxamide] | 55 | 96
14 | O=C(Nc1cc2oc(N3CCOCC3)nc2nc1N1CCCCC1)c1cnn2cccnc12 [Example 24, N-(2-morpholino-5-(piperidin-1-yl)oxazolo[4,5-b]pyridin-6-yl)pyrazolo[1,5-a]pyrimidine-3-carboxamide] | 97 | 97
15 | Cc1nc2nc(N3CCOCC3)sc2cc1NC(=O)c1cccc(N2CCC(O)C2)n1 (centres unmarked) [Example 43, 6-(3-hydroxypyrrolidin-1-yl)-N-(5-methyl-2-morpholinothiazolo[4,5-b]pyridin-6-yl)picolinamide] | 50 | 92
16 | O=C(Nc1cc2sc(N3CCOCC3)nc2nc1C1CC1)c1cnn2ccc(N3CCC(O)CC3)nc12 [Example 101, N-(5-cyclopropyl-2-morpholinothiazolo[4,5-b]pyridin-6-yl)-5-(4-hydroxypiperidin-1-yl)pyrazolo[1,5-a]pyrimidine-3-carboxamide] | 96 | 98
17 | NC1CCCN(c2ccn3ncc(C(=O)Nc4cc5sc(N6CCOCC6)nc5nc4C4CC4)c3n2)C1 (centres unmarked) [Example 21, 5-(3-aminopiperidin-1-yl)-N-(5-cyclopropyl-2-morpholinothiazolo[4,5-b]pyridin-6-yl)pyrazolo[1,5-a]pyrimidine-3-carboxamide] | 97 | 98
18 | Cc1cc(-c2nc(C(=O)Nc3cc4oc(N5CCOCC5)nc4nc3N3CC(C)(C)CC3=O)co2)ccn1 [Example 86, N-(5-(4,4-dimethyl-2-oxopyrrolidin-1-yl)-2-morpholinooxazolo[4,5-b]pyridin-6-yl)-2-(2-methylpyridin-4-yl)oxazole-4-carboxamide] | 65 | 57
19 | Cc1ccc(C(=O)Nc2cc3sc(N4CCOCC4)nc3nc2N2CCCCC2)nc1-c1ccc(N)nc1 [Example 85, 6′-amino-3-methyl-N-(2-morpholino-5-(piperidin-1-yl)thiazolo[4,5-b]pyridin-6-yl)-[2,3′-bipyridine]-6-carboxamide] | 101 | 100
20 | NC1CCN(c2ccn3ncc(C(=O)Nc4cc5sc(N6CCOCC6)nc5nc4C4CC4)c3n2)C1 (centres unmarked) [Example 23, 5-(3-aminopyrrolidin-1-yl)-N-(5-cyclopropyl-2-morpholinothiazolo[4,5-b]pyridin-6-yl)pyrazolo[1,5-a]pyrimidine-3-carboxamide hydrochloride] | 86 | 97
21 | O=C(Nc1cc2sc(N3CCOCC3)nc2nc1N1CCC[C@@H](O)C1)c1cccc(N2CCC(O)CC2)n1 [Example 38, (R)-6-(4-hydroxypiperidin-1-yl)-N-(5-(3-hydroxypiperidin-1-yl)-2-morpholinothiazolo[4,5-b]pyridin-6-yl)picolinamide] | 98 | 99
